The results in this text go back to ChEMBL document CHEMBL1201862, “PubChem BioAssay data set” (2004).

Holding throughout (experiment): NCI anticancer screen, dose series, 48 h
The subject of assay [1] is MCF7.
Assay [2] has as its system UACC-62.
Assay [3] has as its system HCC 2998.
The subject of assay [4] is SN12C.
In assay [5] the test system is HOP-62.
Assay [6] has as its system SK-MEL-28.
The subject of assay [7] is MDA-MB-231.
Assay [8] has as its system SR.
In assay [9] the test system is CCRF-CEM.
Assay [10] deals with KM12.
Assay [11] relates to LOX IMVI.
Assay [12] concerns A549.
Assay [13] has as its system SK-OV-3.
Assay [14] relates to EKVX.
Assay [15] concerns COLO 205.
For assay [16], the system named is CAKI-1.
The subject of assay [17] is SNB-19.
Assay [18] concerns PC-3.
Assay [19] relates to NCI-H23.
Assay [20] relates to NCI/ADR-RES.

The structures appear in SMILES notation.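 All cell lines were grown in 96-well plates and treated with compound for 48 hours. GI50 is the concentration that inhibits growth by half.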 Active and inactive are the calls of the source. No stated cut-off is given here; in the data, active = GI50 up to about 1.1 µM and inactive = higher.

Take `NCCNc1nc(N2CCCC2)c2nc(Cl)c(NCc3ccccc3)nc2n1`: the GI50 is 1.73 µM (inactive) in assay [1]; 1.75 µM (inactive) in assay [2]; 1.51 µM (inactive) in [3]; 1.52 µM (inactive) in assay [4]; 1.67 µM (inactive) in assay [5]; 1.79 µM (inactive) in [6]. For the same molecule, the GI50 was 1.33 µM (inactive) in assay [7]; 1.57 µM (inactive) in assay [8]; 2.42 µM (inactive) in [9]; 1.71 µM (inactive) in assay [10]; 1.56 µM (inactive) in assay [11]; 1.71 µM (inactive) in assay [12]. The GI50 in assay [13] is 1.82 µM (inactive); in [14], 1.73 µM (inactive); in [15] it was 1.69 µM (inactive); in [16] it was 5.27 µM (inactive); in assay [17], 1.83 µM (inactive); in assay [18], 2.5 µM (inactive). The GI50 in assay [19] was 2.14 µM (inactive); in [20], 13.6 µM (inactive).

On to `COC1(c2cccs2)c2ccccc2C(OC)(c2cccs2)c2ccccc21` (stereo not given), for which the GI50 is 84.7 µM (inactive) in [1]; 47.3 µM (inactive) in [2]; 49.3 µM (inactive) in assay [3]; > 100 µM (inactive) in [4]; 42.3 µM (inactive) in assay [5]; > 100 µM (inactive) in [6]. For the same molecule, the GI50 in [7] was 26.4 µM (inactive); in [8], 40.7 µM (inactive); in [9], > 100 µM (inactive); in assay [10] it was > 100 µM (inactive); in assay [11], > 100 µM (inactive); in assay [12], 94.8 µM (inactive). Further, the GI50 in [13] is 86.1 µM (inactive); in [14] it was 36.9 µM (inactive); in assay [15], 85.5 µM (inactive); in assay [16], > 100 µM (inactive); in [17], 42.8 µM (inactive); in [18], 42.9 µM (inactive). Besides, the GI50 is 23.9 µM (inactive) in assay [19] and 92.7 µM (inactive) in assay [20].

Regarding `CC1(C)CC(C)(C)C1=NNC(N)=O`, the GI50 in assay [1], in assay [2], in assay [3], in assay [4], in assay [5] and in assay [6] was > 100 µM (inactive) each time. In addition, the GI50 in [7], in [8], in assay [9], in assay [10], in assay [11] and in assay [12] was > 100 µM (inactive) throughout. Also, the GI50 in assay [13], in [14], in assay [15], in assay [16], in assay [17] and in assay [18] was > 100 µM (inactive) each time. Also, the GI50 in assay [19] and in assay [20] was > 100 µM (inactive) in each case.

As to `N#CC1C(=O)Nc2sc(C(=O)c3ccc(Br)cc3)c(N)c2C12CCCCC2` (stereo not given), the GI50 was 16.5 µM (inactive) in assay [1]; 18.3 µM (inactive) in assay [2]; 22.5 µM (inactive) in assay [3]; 27.9 µM (inactive) in assay [4]; 38.5 µM (inactive) in assay [5]; 16 µM (inactive) in assay [6]. The GI50 is 23 µM (inactive) in [7]; 7.96 µM (inactive) in assay [8]; 29 µM (inactive) in [9]; 13.4 µM (inactive) in assay [10]; 24.1 µM (inactive) in [11]; 18.1 µM (inactive) in [12]. Besides, the GI50 in assay [13] is 46.3 µM (inactive); in assay [14], 17.7 µM (inactive); in assay [15] it was 13.7 µM (inactive); in assay [16], 27.9 µM (inactive); in [17], 37.9 µM (inactive); in assay [18], 10.4 µM (inactive). The GI50 is 25 µM (inactive) in assay [19] and 24.9 µM (inactive) in assay [20].

Regarding `O=C(CNS(=O)(=O)Cc1ccccc1)NNc1ccccc1`, the GI50 in [1] was > 74.8 µM (inactive); in assay [2], 1.12 µM (active); in [3], > 100 µM (inactive); in [4], > 100 µM (inactive); in assay [5], > 100 µM (inactive); in assay [6] it was > 100 µM (inactive). Moreover, the GI50 in assay [7] was > 100 µM (inactive); in [8], > 100 µM (inactive); in [9], > 100 µM (inactive); in assay [10], 6.1 µM (inactive); in assay [11] it was 1.85 µM (inactive); in assay [12] it was > 100 µM (inactive). The GI50 is > 100 µM (inactive) in assay [13]; > 69.5 µM (inactive) in [14]; 3.23 µM (inactive) in assay [15]; 5.6 µM (inactive) in [16]; > 100 µM (inactive) in assay [17]; > 100 µM (inactive) in assay [18]. Also, the GI50 in [19] and in [20] was > 100 µM (inactive) each time.

For `Cc1csc(NNC(N)=O)n1`, the GI50 in assay [1], in assay [2], in assay [3], in assay [4], in assay [5] and in assay [6] was > 100 µM (inactive) in each case. The GI50 is > 100 µM (inactive) in assay [7]; 25.6 µM (inactive) in assay [8]; > 100 µM (inactive) in assay [9]; > 100 µM (inactive) in assay [10]; > 100 µM (inactive) in assay [11]; > 100 µM (inactive) in [12]. In addition, the GI50 in assay [13], in assay [14], in assay [15], in assay [16], in [17] and in [18] was > 100 µM (inactive) in each case. Also, the GI50 in assay [19] and in assay [20] was > 100 µM (inactive) in each case.

Take `COc1ccc(/N=N/c2c(-c3c(OC)cc4occc4c3OC)[nH]c(=O)c(C#N)c2C)cc1`: the GI50 in [1], in assay [2], in [3], in [4], in [5] and in [6] was > 100 µM (inactive) throughout. The GI50 in assay [7], in assay [8], in assay [9], in assay [10], in [11] and in assay [12] was > 100 µM (inactive) throughout. The GI50 in [13], in [14], in assay [15], in assay [16], in assay [17] and in assay [18] was > 100 µM (inactive) in each case. For the same molecule, the GI50 in assay [19] and in assay [20] was > 100 µM (inactive) each time.

For the molecule `COc1cccc2c(Nc3ccc(S(=O)(=O)N=C(N)N)cc3)c3ccc([N+](=O)[O-])cc3nc12`, the GI50 in [1] was 4.09 µM (inactive); in assay [2], 5.98 µM (inactive); in assay [3] it was 3.23 µM (inactive); in assay [4] it was 30 µM (inactive); in [5] it was 15.7 µM (inactive); in assay [6] it was 35.2 µM (inactive). Further, the GI50 is 2.34 µM (inactive) in assay [7]; 11.3 µM (inactive) in [8]; 2.38 µM (inactive) in assay [9]; 3.99 µM (inactive) in assay [10]; 11.4 µM (inactive) in assay [11]; 20.2 µM (inactive) in [12]. The GI50 in [13] is 28.6 µM (inactive); in assay [14] it was 26.2 µM (inactive); in assay [15], 18.8 µM (inactive); in assay [16], 5.57 µM (inactive); in [17] it was 12.6 µM (inactive); in assay [18], 18.7 µM (inactive). The values for the GI50 in assay [19] and in assay [20] were 14.7 µM (inactive) and > 100 µM (inactive), respectively.

In the case of `COc1ccc2c(c1)-c1c(c3ccccc3n1CCN1CCCCC1)CC2`, the GI50 is 7.24 µM (inactive) in [1]; 16.3 µM (inactive) in assay [2]; 6.87 µM (inactive) in assay [3]; 22.4 µM (inactive) in assay [4]; 8.79 µM (inactive) in assay [5]; 30.2 µM (inactive) in assay [6]. The GI50 in assay [7] is 14.3 µM (inactive); in [8], 6.64 µM (inactive); in assay [9] it was 19.5 µM (inactive); in assay [10], 6.07 µM (inactive); in assay [11], 16.3 µM (inactive); in assay [12], 10.6 µM (inactive). In addition, the GI50 was 24.2 µM (inactive) in [13]; 26.8 µM (inactive) in assay [14]; 13.2 µM (inactive) in [15]; 21.6 µM (inactive) in [16]; 23.7 µM (inactive) in [17]; 5.75 µM (inactive) in assay [18]. Also, the GI50 in assay [19] was 18.3 µM (inactive); in [20] it was 6.25 µM (inactive).

For `N#Cc1nc(CCc2nc(C#N)c(N)o2)oc1N`, the GI50 in assay [1], in assay [2], in assay [3], in assay [4], in assay [5] and in [6] was > 10 µM (inactive) in each case. The GI50 in assay [7], in assay [8], in assay [9], in [10], in assay [11] and in assay [12] was > 10 µM (inactive) throughout. For the same molecule, the GI50 in assay [13], in [14], in assay [15], in [16], in assay [17] and in assay [18] was > 10 µM (inactive) in each case. Further, the GI50 in assay [19] and in assay [20] was > 10 µM (inactive) each time.
